Experimental data as given in patent US12371454B2, “Cyclic peptide compound having Kras inhibitory action” (priority 2019, dated 2025).
Starred links: 1 amine or outer side, 2 acyl side, 3 side chain; linkers in the order of their positions; H or OH if unused. Positions of bridges follow the written chain, without caps; N, C: chain ends. Non-standard residues stand in square brackets, D forms with d. Residues, ends and D or L forms follow the SMILES beside them. *: point of attachment. hPhe(3,5-F2-4-CF3) = N[C@@H](CCc1cc(F)c(C(F)(F)F)c(F)c1)C(=O)O; hPhe(3-Cl-4-CF3) = N[C@@H](CCc1ccc(C(F)(F)F)c(Cl)c1)C(=O)O; NMePhe(4-CF3) = CN[C@@H](Cc1ccc(C(F)(F)F)cc1)C(=O)O; NMeAla(4-thiazolyl) = CN[C@@H](Cc1cscn1)C(=O)O; NMeAbu(4,4,4-F3) = CN[C@@H](CC(F)(F)F)C(=O)O; NMePhe(4-Me) = CN[C@@H](Cc1ccc(C)cc1)C(=O)O; NMeNle(6-CHF2) = CN[C@@H](CCCCC(F)F)C(=O)O; NMePhe(2-Cl) = CN[C@@H](Cc1ccccc1Cl)C(=O)O; NMePhe(3-F) = CN[C@@H](Cc1cccc(F)c1)C(=O)O; NMedβ3hAla = C[C@H](CC(=O)[*:2])N(C)[*:1]; NMeAla(cPent) = CN[C@@H](CC1CCCC1)C(=O)O; hPhe(4-F) = N[C@@H](CCc1ccc(F)cc1)C(=O)O; NMeGly(cPent) = CN[C@H](C(=O)O)C1CCCC1; NMeGly(cBu) = CN[C@H](C(=O)O)C1CCC1; NMeCha = CN[C@@H](CC1CCCCC1)C(=O)O; NMeChg = CN[C@H](C(=O)O)C1CCCCC1; NMeI = CC[C@H](C)[C@H](NC)C(=O)O; Gly(cBu) = N[C@H](C(=O)O)C1CCC1; NMeD = CN[C@@H](CC(=O)O)C(=O)O; NMeL = CN[C@@H](CC(C)C)C(=O)O; NMeV = CN[C@H](C(=O)O)C(C)C; d(β3hA) = C[C@@H](N)CC(=O)O; NMeS = CN[C@@H](CO)C(=O)O; Morpholide = C1CN(*)CCO1; NMeA = CN[C@@H](C)C(=O)O; Piperidide = C1CCN(*)CC1; Pyrrolidide = C1CCN(*)C1; Ac5c = NC1(C(=O)O)CCCC1; Aze = O=C(O)[C@@H]1CCN1; Isopentyl = CC(C)CC*; Sar = CNCC(=O)O

Experiments:
[1] = biological target: T1, Kras and SOS1 (biotin-tagged human Kras loaded with GDP, His-tagged human SOS1) (Homo sapiens, UniProt P01116, G12D); assay: Protein-protein interaction inhibition between Kras and SOS1 (KrasGl2D-SOS PPI) using AlphaScreen; assay type: binding; settings: AlphaScreen; biotin-tagged human Kras loaded with GDP, His-tagged human SOS1; read-out: KRAS G12D-SOS PPI IC50
T1 construct: made in house; host or cells: E. coli (stated for Kras only)
How it was run: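 Binding between SOS1 and Kras is detected as bead-proximity luminescence: illuminate Ni-conjugated donors (680 nm), collect 520-620 nm emission from streptavidin-conjugated acceptors; Kras carries biotin and GDP loaded after purification, SOS1 carries a His tag.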

[2] = system: Human pancreatic cancer cell line AsPC-1; assay: Measurement of AsPC-1 cell growth inhibition (AsPC-1 CGI); assay type: cell-based; settings: 96 h
How it was run: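 AsPC-1 cells in 15% FBS RPMI-1640 were exposed to test compound for 96 hours at 37° C, with CellTiter-Glo as endpoint.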

T1 sequence (P01116 1-188 isoform P01116-2 G12D): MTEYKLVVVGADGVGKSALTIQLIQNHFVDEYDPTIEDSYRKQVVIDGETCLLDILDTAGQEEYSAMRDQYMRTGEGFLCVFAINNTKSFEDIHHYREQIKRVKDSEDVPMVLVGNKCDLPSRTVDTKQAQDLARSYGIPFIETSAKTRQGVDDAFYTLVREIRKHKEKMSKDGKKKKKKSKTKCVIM

Compound	IC50 [1]	IC50 [2]
CC[C@H](C)[C@@H]1NC(=O)[C@H](C2CCC2)N(C)C(=O)C[C@@H](C(=O)N2CCCCC2)N(C)C(=O)[C@H](C(C)C)N(C)C(=O)C2(CCCC2)NC(=O)[C@@H]2CCCN2C(=O)[C@H](CCc2ccc(C(F)(F)F)c(Cl)c2)NC(=O)CN(C)C(=O)[C@H](CC2CCCCC2)N(C)C(=O)CN(C)C(=O)CN(C)C1=O [Compound 948] ([NMeGly(cBu)]I[Sar][Sar][NMeCha][Sar][hPhe(3-Cl-4-CF3)]P[Ac5c][NMeV][NMeD]-Piperidide; lactam N-11)	3.1 nM	50 to 100 nM
CC[C@H](C)[C@@H]1NC(=O)[C@H](CC(C)C)N(C)C(=O)C[C@@H](C)NC(=O)[C@H](C2CCCC2)N(C)C(=O)C2(CCCC2)NC(=O)[C@@H]2CCCN2C(=O)[C@H](CCc2ccc(C(F)(F)F)c(Cl)c2)NC(=O)CN(C)C(=O)[C@H](CC2CCCCC2)N(C)C(=O)CN(C)C(=O)CN(C)C1=O [Compound 122] (cyclo([Ac5c][NMeGly(cPent)][d(β3hA)][NMeL]I[Sar][Sar][NMeCha][Sar][hPhe(3-Cl-4-CF3)]P))	8.6 nM	100 to 500 nM
CC[C@H](C)[C@@H]1NC(=O)[C@H](COCCC(C)C)N(C)C(=O)C[C@@H](C(=O)N2CCCCC2)N(C)C(=O)[C@H](C2CCCCC2)N(C)C(=O)C2(CCCC2)NC(=O)[C@@H]2CCCN2C(=O)[C@H](CCc2ccc(C(F)(F)F)c(Cl)c2)NC(=O)CN(C)C(=O)[C@H](CC2CCCCC2)N(C)C(=O)CN(C)C(=O)CN(C)C1=O [Compound 1115] ([NMeS](Isopentyl)I[Sar][Sar][NMeCha][Sar][hPhe(3-Cl-4-CF3)]P[Ac5c][NMeChg][NMeD]-Piperidide; lactam N-11)	2.5 nM	100 to 500 nM
CC[C@H](C)[C@@H]1NC(=O)[C@H](C2CCC2)N(C)C(=O)C[C@@H](C(=O)N2CCOCC2)N(C)C(=O)[C@H](C2CCCCC2)N(C)C(=O)C2(CCCC2)NC(=O)[C@@H]2CCCN2C(=O)[C@H](CCc2ccc(C(F)(F)F)c(Cl)c2)NC(=O)CN(C)C(=O)[C@H](CC2CCCC2)N(C)C(=O)CN(C)C(=O)CN(C)C1=O [Compound 434] ([NMeGly(cBu)]I[Sar][Sar][NMeAla(cPent)][Sar][hPhe(3-Cl-4-CF3)]P[Ac5c][NMeChg][NMeD]-Morpholide; lactam N-11)	0.52 nM	50 to 100 nM
CC(C)C[C@H]1C(=O)N[C@@H](C(C)C)C(=O)N(C)CC(=O)N(C)CC(=O)N(C)[C@@H](CC2CCCCC2)C(=O)N(C)CC(=O)N[C@@H](CCc2ccc(C(F)(F)F)c(Cl)c2)C(=O)N2CCC[C@H]2C(=O)NC2(CCCC2)C(=O)N(C)[C@@H](C2CCCCC2)C(=O)N(C)[C@H](C(=O)N2CCOCC2)CC(=O)N1C [Compound 1908] ([NMeL]V[Sar][Sar][NMeCha][Sar][hPhe(3-Cl-4-CF3)]P[Ac5c][NMeChg][NMeD]-Morpholide; lactam N-11)	0.65 nM	50 to 100 nM
CC[C@H](C)[C@@H]1NC(=O)[C@H](CC(C)C)N(C)C(=O)C[C@@H](C)N(C)C(=O)[C@H](C(C)C)N(C)C(=O)C2(CCCC2)NC(=O)[C@@H]2CCCN2C(=O)[C@H](CCc2ccc(C(F)(F)F)c(Cl)c2)NC(=O)CN(C)C(=O)[C@H](Cc2ccc(C(F)(F)F)cc2)N(C)C(=O)CN(C)C(=O)CN(C)C1=O [Compound 1617] (cyclo([Ac5c][NMeV][NMedβ3hAla][NMeL]I[Sar][Sar][NMePhe(4-CF3)][Sar][hPhe(3-Cl-4-CF3)]P))	2.7 nM	50 to 100 nM
CC[C@H](C)[C@@H]1NC(=O)[C@H](CC(C)C)N(C)C(=O)C[C@@H](C(=O)N2CCCCC2)N(C)C(=O)[C@H](C2CCCCC2)N(C)C(=O)C2(CCCC2)NC(=O)[C@@H]2CCCN2C(=O)[C@H](CCc2ccc(C(F)(F)F)c(Cl)c2)NC(=O)CN(C)C(=O)[C@H](CCCCC(F)F)N(C)C(=O)CN(C)C(=O)CN(C)C1=O [Compound 631] ([NMeL]I[Sar][Sar][NMeNle(6-CHF2)][Sar][hPhe(3-Cl-4-CF3)]P[Ac5c][NMeChg][NMeD]-Piperidide; lactam N-11)	1 nM	100 to 500 nM
CC[C@H](C)[C@@H]1NC(=O)[C@H](C2CCCC2)N(C)C(=O)C[C@@H](C(=O)N2CCCCC2)N(C)C(=O)[C@H](C(C)C)N(C)C(=O)C2(CCCC2)NC(=O)[C@@H]2CCCN2C(=O)[C@H](CCc2ccc(C(F)(F)F)c(Cl)c2)NC(=O)CN(C)C(=O)[C@H](CC2CCCCC2)N(C)C(=O)CN(C)C(=O)CN(C)C1=O [Compound 393] ([NMeGly(cPent)]I[Sar][Sar][NMeCha][Sar][hPhe(3-Cl-4-CF3)]P[Ac5c][NMeV][NMeD]-Piperidide; lactam N-11)	5.3 nM	100 to 500 nM
CC[C@H](C)[C@@H]1NC(=O)[C@H](CC(C)C)N(C)C(=O)C[C@@H](C(=O)N(C)C)N(C)C(=O)[C@H](C(C)C)N(C)C(=O)C2(CCCC2)NC(=O)[C@@H]2CCCN2C(=O)[C@H](CCc2ccc(C(F)(F)F)c(Cl)c2)NC(=O)CN(C)C(=O)[C@H](CC2CCCCC2)N(C)C(=O)CN(C)C(=O)CN(C)C1=O [Compound 1812] ([NMeL]I[Sar][Sar][NMeCha][Sar][hPhe(3-Cl-4-CF3)]P[Ac5c][NMeV][NMeD]-NMe2; lactam N-11)	0.56 nM	50 to 100 nM
CC[C@H](C)[C@@H]1NC(=O)[C@H](CC(F)(F)F)N(C)C(=O)C[C@@H](C(=O)N2CCCC2)N(C)C(=O)[C@H](C2CCCCC2)N(C)C(=O)C2(CCCC2)NC(=O)[C@@H]2CCCN2C(=O)[C@H](CCc2cc(F)c(C(F)(F)F)c(F)c2)NC(=O)CN(C)C(=O)[C@H](CC2CCCCC2)N(C)C(=O)CN(C)C(=O)CN(C)C1=O [Compound 1228] ([NMeAbu(4,4,4-F3)]I[Sar][Sar][NMeCha][Sar][hPhe(3,5-F2-4-CF3)]P[Ac5c][NMeChg][NMeD]-Pyrrolidide; lactam N-11)	0.59 nM	20 to 50 nM
CC[C@H](C)[C@@H]1NC(=O)[C@H](CC(C)C)N(C)C(=O)C[C@@H](C(=O)N(C)C)N(C)C(=O)[C@H]([C@@H](C)CC)N(C)C(=O)C2(CCCC2)NC(=O)[C@H](Cc2ccccc2Cl)N(C)C(=O)[C@H](CCc2ccc(C(F)(F)F)c(Cl)c2)NC(=O)CN(C)C(=O)[C@H](Cc2ccc(C)cc2)N(C)C(=O)[C@@H]2CCN2C(=O)[C@H](C)N(C)C1=O [Compound 216] ([NMeL]I[NMeA][Aze][NMePhe(4-Me)][Sar][hPhe(3-Cl-4-CF3)][NMePhe(2-Cl)][Ac5c][NMeI][NMeD]-NMe2; lactam N-11)	8 nM	100 to 500 nM
CC[C@H](C)[C@@H]1NC(=O)[C@H](CC(C)C)N(C)C(=O)C[C@@H](C(=O)N2CCCC2)N(C)C(=O)[C@H](C2CCCCC2)N(C)C(=O)C2(CCCC2)NC(=O)[C@@H]2CCCN2C(=O)[C@H](CCc2ccc(C(F)(F)F)c(Cl)c2)NC(=O)CN(C)C(=O)[C@H](CC2CCCCC2)N(C)C(=O)[C@@H]2CCN2C(=O)[C@H](C)N(C)C1=O [Compound 1726] ([NMeL]I[NMeA][Aze][NMeCha][Sar][hPhe(3-Cl-4-CF3)]P[Ac5c][NMeChg][NMeD]-Pyrrolidide; lactam N-11)	0.68 nM	20 to 50 nM
CC[C@H](C)[C@@H]1NC(=O)[C@H](C)N(C)C(=O)C[C@@H](C(=O)N2CCCCC2)N(C)C(=O)[C@H](C2CCCCC2)N(C)C(=O)C2(CCCC2)NC(=O)[C@@H]2CCCN2C(=O)[C@H](CCc2ccc(F)cc2)NC(=O)CN(C)C(=O)[C@H](CC2CCCCC2)N(C)C(=O)CN(C)C(=O)CN(C)C1=O [Compound 618] ([NMeA]I[Sar][Sar][NMeCha][Sar][hPhe(4-F)]P[Ac5c][NMeChg][NMeD]-Piperidide; lactam N-11)	2.4 nM	100 to 500 nM
CC[C@H](C)[C@@H]1NC(=O)[C@H](CC(C)C)N(C)C(=O)C[C@@H](C(=O)N(C)C)N(C)C(=O)[C@H]([C@@H](C)CC)N(C)C(=O)C2(CCCC2)NC(=O)[C@H](Cc2cccc(F)c2)N(C)C(=O)[C@H](CCc2ccc(C(F)(F)F)c(Cl)c2)NC(=O)CN(C)C(=O)[C@H](Cc2ccc(C)cc2)N(C)C(=O)[C@@H]2CCN2C(=O)[C@H](C)N(C)C1=O [Compound 1000] ([NMeL]I[NMeA][Aze][NMePhe(4-Me)][Sar][hPhe(3-Cl-4-CF3)][NMePhe(3-F)][Ac5c][NMeI][NMeD]-NMe2; lactam N-11)	2.6 nM	20 to 50 nM
CC[C@H](C)[C@@H]1NC(=O)[C@H](CC(C)C)N(C)C(=O)C[C@@H](C(=O)N(C)C)N(C)C(=O)[C@H](C2CCCC2)N(C)C(=O)C2(CCCC2)NC(=O)[C@H](Cc2cscn2)N(C)C(=O)[C@H](CCc2ccc(C(F)(F)F)c(Cl)c2)NC(=O)CN(C)C(=O)[C@H](CC2CCCCC2)N(C)C(=O)[C@@H]2CCN2C(=O)[C@H](C)N(C)C1=O [Compound 384] ([NMeL]I[NMeA][Aze][NMeCha][Sar][hPhe(3-Cl-4-CF3)][NMeAla(4-thiazolyl)][Ac5c][NMeGly(cPent)][NMeD]-NMe2; lactam N-11)	1 nM	100 to 500 nM
CC(C)C[C@H]1C(=O)N[C@@H](C2CCC2)C(=O)N(C)CC(=O)N(C)CC(=O)N(C)[C@@H](CC2CCCCC2)C(=O)N(C)CC(=O)N[C@@H](CCc2ccc(C(F)(F)F)c(Cl)c2)C(=O)N2CCC[C@H]2C(=O)NC2(CCCC2)C(=O)N(C)[C@@H](C2CCCCC2)C(=O)N(C)[C@H](C(=O)N2CCCC2)CC(=O)N1C [Compound 1988] ([NMeL][Gly(cBu)][Sar][Sar][NMeCha][Sar][hPhe(3-Cl-4-CF3)]P[Ac5c][NMeChg][NMeD]-Pyrrolidide; lactam N-11)	0.69 nM	50 to 100 nM
